Data published in the NIST ThermoML archive (doi:10.1021/je700271n).
Numbers after ± are expanded uncertainties.

Conditions: Liquid

| vapor or sublimation pressure (273.15 K) [kPa] | vapor or sublimation pressure (283.15 K) [kPa] | vapor or sublimation pressure (293.15 K) [kPa] | vapor or sublimation pressure (303.15 K) [kPa] | vapor or sublimation pressure (313.15 K) [kPa] | vapor or sublimation pressure (323.15 K) [kPa] | SMILES |
| --- | --- | --- | --- | --- | --- | --- |
| 195 ± 3 | 280 ± 4 | 389 ± 5 | 527 ± 7 | 704 ± 9 | 920 ± 11 | FC(C(F)(F)F)C(F)(F)F [1,1,1,2,3,3,3-heptafluoropropane] |
| 476 ± 6 | 632 ± 8 | 833 ± 10 | 1079 ± 13 | 1366 ± 17 | 1709 ± 21 | CCC [propane] |
